Reference: PMC8317958, “Design, synthesis and biological evaluation of novel thiazole-naphthalene derivatives as potential anticancer agents and tubulin polymerisation inhibitors” (Journal of Enzyme Inhibition and Medicinal Chemistry, 2021)
Values belong to the compound of their own block, whether it stands above or below them.

Assays:
[1] = test system: human breast cancer cell line (MCF-7); assay: Antiproliferative activity, CCK-8 assay, MCF-7; type: cell-based; conditions: CCK-8, 48 h, means of three experiments
Procedure: Cell culture and cytotoxicity assay […]
against MCF-7 human breast cancer cell line by using the CCK -8 assay with cisplatin, […]
cultured in RPMI-1640 medium containing 10% fetal bovine serum in a humidified 5% CO2 atmosphere at 37 °C. Cells were seeded into 96-well plates at a density of 1×10^5 cells/well and incubated for 24 h. After incubation, the cells were treated with vehicle control, reference drugs, or title compounds, and incubated at 37 °C for 48 h.
Then CCK-8 was added and incubated for another 4 h. The absorbance values of the solution at 450 nm were measured using microplate reader, and each experiment was performed at least in triplicate. Then the results were expressed as the IC50 values. […]

[2] = test system: human lung adenocarcinoma cell line (A549); assay: Antiproliferative activity, CCK-8 assay, A549; type: cell-based; conditions: CCK-8, means of three experiments
[3] = test system: normal human embryonic kidney cell line (HEK293); assay: Inhibitory activity against normal cell line HEK293; type: cell-based
[4] = test system: purified tubulin protein; assay: In vitro tubulin polymerisation assay; type: biochemical; conditions: 37 °C, 20 min incubation
Procedure: 1.3. In vitro tubulin polymerization assay
The purified tubulin protein was mixed with different concentrations of compound 5b […]
PEM buffer (100 mM PIPES, 1 mM MgCl2, and 1 mM EGTA) with 1 mM GTP and 5% glycerol. Then the mixture was immediately monitored under 340 nm at 37 °C every 1 min for 20 min using the spectrophotometer. The plateau absorbance values were used for calculations. The IC50 value was defined as the concentration of the compound

[5] = test system: MCF-7 cancer cells; assay: Cell cycle analysis by flow cytometry; type: cell-based, human; conditions: 24 h; for G2 (G2/M) population: control 26.66%; for S population: control 33.42%; for G1 population: control 39.92%
Procedure: Based on the literature report, most tubulin destabilising agents can disrupt regulated cell cycle distribution and lead to cell cycle arrest at metaphase[23]^,[31]. Therefore, we evaluated the effect of the most promising compound 5b on the cell cycle of MCF-7 cancer cells using the flow cytometry analysis assay. In this study, MCF-7 cancer cells were incubated with different concentrations of 5b (0.3125, 0.625, and 1.25 μM) for 24 h. […]
MCF-7 cells were seeded in 6-well plates (3 × 10^5 cells/well) and incubated in the absence and presence of different concentrations of compound 5b (0.3125, 0.625, and 1.25 μM) for 24 h. Subsequently, the cells were harvested, washed with PBS, and fixed in 70% ice-cold ethanol at 4 °C overnight. After removed the ethanol in the next day, the cells were resuspended in the staining buffer and incubated with RNase and propidium iodide for 30 min. […]

[6] = test system: MCF-7 cancer cells; assay: Annexin V-FITC/PI apoptosis assay; type: cell-based, human; conditions: 24 h; for total numbers of early and late apoptotic cells: control 4.93%
Procedure: Considering that tubulin polymerisation inhibitors can induce cellular apoptosis, the Annexin V-FITC/PI assay was performed to detect whether compound 5b was able to induce cancer cell apoptosis. […]
MCF-7 cells were seeded in 6-well plates (3 × 10^5 cells/well) and incubated with different concentrations of compound 5b (0.3125, 0.625, and 1.25 μM) or vehicle for 24 h. Cells were harvested and incubated with 5 μL of Annexin-V/FITC in 300 μL binding buffer for 15 min. Then, PI solution (10 μL) was added to the medium and […]
incubated for 5 min. […]

[7] = test system: tubulin; parameters: method as in PMID 31724435; conditions: naphthalene-chalcone derivative of earlier work ref 23; read-out: Tubulin polymerisation IC50; cited from earlier work

SMILES: COc1cc(-c2sc(N)nc2-c2ccc(OC)c3ccccc23)c(Br)c(OC)c1OC [5c]
IC50 ([1]; Homo sapiens, MCF7): 31.1 ± 0.7 µM
IC50 ([2]; Homo sapiens, A549): > 50 µM

SMILES: CCC(=O)Nc1nc(-c2ccc(OC)c3ccccc23)c(-c2ccc(OC)cc2)s1 [6b]
IC50 ([1]; Homo sapiens, MCF7): 14.8 ± 0.45 µM
IC50 ([2]; Homo sapiens, A549): 40.32 ± 0.32 µM

SMILES: CCCC(=O)Nc1nc(-c2ccc(OC)c3ccccc23)c(-c2ccc(OC)cc2)s1 [6c]
IC50 ([1]; Homo sapiens, MCF7): 14.9 ± 0.34 µM
IC50 ([2]; Homo sapiens, A549): > 50 µM

SMILES: CCOc1ccc(-c2sc(NC(=O)CC)nc2-c2ccc(OC)c3ccccc23)cc1 [6g]
IC50 ([1]; Homo sapiens, MCF7): 9.61 ± 0.54 µM
IC50 ([2]; Homo sapiens, A549): 18.7 ± 0.89 µM

SMILES: CCCC(=O)Nc1nc(-c2ccc(OC)c3ccccc23)c(-c2ccc(OCC)cc2)s1 [6h]
IC50 ([1]; Homo sapiens, MCF7): 7.18 ± 0.78 µM
IC50 ([2]; Homo sapiens, A549): > 50 µM

SMILES: CCOc1ccc(-c2sc(NC(=O)C(C)C)nc2-c2ccc(OC)c3ccccc23)cc1 [6i]
IC50 ([1]; Homo sapiens, MCF7): 7.69 ± 0.34 µM
IC50 ([2]; Homo sapiens, A549): > 50 µM

SMILES: CCC(=O)Nc1nc(-c2ccc(OC)c3ccccc23)c(-c2cc(OC)c(OC)c(OC)c2Br)s1 [6j]
IC50 ([1]; Homo sapiens, MCF7): > 50 µM
IC50 ([2]; Homo sapiens, A549): > 50 µM

SMILES: COc1cc(-c2sc(NC(=O)C(C)C)nc2-c2ccc(OC)c3ccccc23)c(Br)c(OC)c1OC [6k]
IC50 ([1]; Homo sapiens, MCF7): > 50 µM
IC50 ([2]; Homo sapiens, A549): > 50 µM

SMILES: CCC(=O)N(C(C)=O)c1nc(-c2ccc(OC)c3ccccc23)c(-c2cc(OC)c(OC)c(OC)c2Br)s1 [6n, N-acetyl-N-(5-(2-bromo-3,4,5-trimethoxyphenyl)-4-(4-methoxynaphthalen-1-yl)thiazol-2-yl)propionamide]
IC50 ([1]; Homo sapiens, MCF7): 13.5 ± 0.82 µM
IC50 ([2]; Homo sapiens, A549): 16.3 ± 0.89 µM

SMILES: COc1ccc(/C=C\c2cc(OC)c(OC)c(OC)c2)cc1O [CA-4, combretastatin A-4, reference compound]
IC50 ([2]; Homo sapiens, A549): 0.029 ± 0.004 µM

SMILES: N.N.[Cl][Pt][Cl] [Cisplatin, reference compound]
IC50 [1]: 11.2 ± 0.75 µM
IC50 [2]: 4.92 ± 0.56 µM

SMILES: COc1cc2nc(/C=N/c3cccnc3Nc3ccc(Cl)cc3)sc2c(OC)c1OC [IV]
IC50 [7]: 8.4 µM

Continued, in another order:

IC50 ([1]; Homo sapiens, MCF7): 1.8 ± 0.07 µM
IC50 ([2]; Homo sapiens, A549): 2.72 ± 0.18 µM
SMILES: COc1ccc(-c2sc(N)nc2-c2ccc(OC)c3ccccc23)cc1 [5a]

IC50 ([1]; Homo sapiens, MCF7): 0.48 ± 0.03 µM
IC50 ([2]; Homo sapiens, A549): 0.97 ± 0.13 µM
IC50 [4]: 3.3 µM
SMILES: CCOc1ccc(-c2sc(N)nc2-c2ccc(OC)c3ccccc23)cc1 [5b]
IC50 [3]: 16.4 ± 4.61 µM
G2 (G2/M) population ([5]; 5b 0.3125 μM): 29.03%
S population ([5]; 5b 0.3125 μM): 28.11%
G1 population ([5]; 5b 0.3125 μM): 42.86%
G2 (G2/M) population ([5]; 5b 0.625 μM): 47.32%
S population ([5]; 5b 0.625 μM): 36.61%
G1 population ([5]; 5b 0.625 μM): 16.06%
G2 (G2/M) population ([5]; 5b 1.25 μM): 72.49%
S population ([5]; 5b 1.25 μM): 20.22%
G1 population ([5]; 5b 1.25 μM): 7.29%
Q1 quadrant ([6]; 5b 0.3125 μM): 0.25
Q2 quadrant ([6]; 5b 0.3125 μM): 10.2
Q3 quadrant ([6]; 5b 0.3125 μM): 5.58
Q4 quadrant ([6]; 5b 0.3125 μM): 83.9
total numbers of early and late apoptotic cells ([6]; 5b 0.3125 μM): 15.78%
Q1 quadrant ([6]; 5b 0.625 μM): 0.44
Q2 quadrant ([6]; 5b 0.625 μM): 14.8
Q3 quadrant ([6]; 5b 0.625 μM): 10.8
Q4 quadrant ([6]; 5b 0.625 μM): 74.0
total numbers of early and late apoptotic cells ([6]; 5b 0.625 μM): 25.6%
Q1 quadrant ([6]; 5b 1.25 μM): 0.55
Q2 quadrant ([6]; 5b 1.25 μM): 15.1
Q3 quadrant ([6]; 5b 1.25 μM): 12.6
Q4 quadrant ([6]; 5b 1.25 μM): 71.8
total numbers of early and late apoptotic cells ([6]; 5b 1.25 μM): 27.7%

IC50 ([1]; Homo sapiens, MCF7): 2.16 ± 0.27 µM
IC50 ([2]; Homo sapiens, A549): 16.1 ± 0.83 µM
SMILES: COc1ccc(-c2sc(NC(C)=O)nc2-c2ccc(OC)c3ccccc23)cc1 [6a]

IC50 ([1]; Homo sapiens, MCF7): 1.03 ± 0.09 µM
IC50 ([2]; Homo sapiens, A549): 1.91 ± 0.08 µM
IC50 [4]: 6.6 µM
SMILES: COc1ccc(-c2sc(NC(=O)C(Cl)(Cl)Cl)nc2-c2ccc(OC)c3ccccc23)cc1 [6d]

IC50 ([1]; Homo sapiens, MCF7): 12.3 ± 0.54 µM
IC50 ([2]; Homo sapiens, A549): > 50 µM
SMILES: COc1ccc(-c2sc(NC(=O)C(C)C)nc2-c2ccc(OC)c3ccccc23)cc1 [6e]

IC50 ([1]; Homo sapiens, MCF7): 5.49 ± 0.84 µM
IC50 ([2]; Homo sapiens, A549): 7 ± 0.3 µM
SMILES: CCOc1ccc(-c2sc(NC(C)=O)nc2-c2ccc(OC)c3ccccc23)cc1 [6f]

IC50 ([1]; Homo sapiens, MCF7): > 50 µM
IC50 ([2]; Homo sapiens, A549): > 50 µM
SMILES: CCCC(=O)N(C(=O)CCC)c1nc(-c2ccc(OC)c3ccccc23)c(-c2cc(OC)c(OC)c(OC)c2Br)s1 [6m]
